The values that follow come from patent publication US7618971B2, “Mitotic kinesin inhibitors” (Merck & Co. Inc., priority 2004, dated 2009).

The nature of this experiment: Activity of the resolved enantiomers of 1-5 (test not stated). To be noted: enantiomers resolved on Chiralpak AD; first and second peak to elute.

Consider `CC(=O)N1N=C(c2cc(F)ccc2F)C[C@@]1(CCCO)c1ccccc1` (single isomer, unassigned; isomer 3) [(S) isomer], for which the “activity of the enantiomer (active / inactive)” value is recorded as “active”. In the case of `CC(=O)N1N=C(c2cc(F)ccc2F)C[C@]1(CCCO)c1ccccc1` [(R) isomer], the “activity of the enantiomer (active / inactive)” value was “inactive”.
